Data as given in patent publication US8680339B2, “Herbicides” (Syngenta Limited, priority 2009, dated 2014).

Columns and labels:
Assay type in all cases: in vivo
[1] = system: Alopecurus myosuroides (ALOMY); assay: Pre-emergence herbicidal activity, glasshouse pot test; settings: rate 250 g/ha, evaluated after 13 days, 100=total damage to plant, 0=no damage to plant; for pest or weed control at 250 g/ha: Alopecurus myosuroides, 312 h
Protocol: (§1) Seeds of a variety of test species were sown in standard soil in pots. After cultivation for one day (pre-emergence) or after 8 days cultivation (post-emergence) under controlled conditions in a glasshouse (at 24/16° C., day/night; 14 hours light; 65% humidity), the plants were sprayed with an aqueous spray solution derived from the formulation of the technical active ingredient in acetone/water (50:50) solution containing 0.5% Tween 20 (polyoxyethelyene sorbitan monolaurate, CAS RN 9005-64-5). The test plants were then grown in a glasshouse under controlled conditions in a glasshouse (at 24/16° C., day/night; 14 hours light; 65% humidity) and watered twice daily. After 13 days for pre and post-emergence, the test was evaluated (100=total damage to plant; 0=no damage to plant). Test Plants: Lolium perenne (LOLPE), Alopecurus myosuroides (ALOMY), Echinochloa crus-galli (ECHCG), and Avena fatua (AVEFA). Pre-Emergence Activity

[2] = system: Echinochloa crus-galli (ECHCG); assay: as above; settings: rate 250 g/ha, evaluated after 13 days, 100=total damage to plant, 0=no damage to plant; for pest or weed control at 250 g/ha: Echinochloa crus-galli, 312 h
Protocol: as §1

[3] = system: Lolium perenne (LOLPE); assay: as above; settings: rate 250 g/ha, evaluated after 13 days, 100=total damage to plant, 0=no damage to plant; for pest or weed control at 250 g/ha: Lolium perenne, 312 h
Protocol: as §1

[4] = system: Avena fatua (AVEFA); assay: as above; settings: rate 250 g/ha, evaluated after 13 days, 100=total damage to plant, 0=no damage to plant; for pest or weed control at 250 g/ha: Avena fatua, 312 h
Protocol: as §1

[5] = system: Alopecurus myosuroides (ALOMY); assay: Post-emergence herbicidal activity, glasshouse pot test; settings: rate 250 g/ha, evaluated after 13 days, 100=total damage to plant, 0=no damage to plant; for pest or weed control at 250 g/ha: Alopecurus myosuroides, 312 h
Protocol: as §1, with “Post-Emergence” for “Pre-Emergence”

[6] = system: Echinochloa crus-galli (ECHCG); assay: as above; settings: rate 250 g/ha, evaluated after 13 days, 100=total damage to plant, 0=no damage to plant; for pest or weed control at 250 g/ha: Echinochloa crus-galli, 312 h
Protocol: as §1, with “Post-Emergence” for “Pre-Emergence”

[7] = system: Lolium perenne (LOLPE); assay: as above; settings: rate 250 g/ha, evaluated after 13 days, 100=total damage to plant, 0=no damage to plant; for pest or weed control at 250 g/ha: Lolium perenne, 312 h
Protocol: as §1, with “Post-Emergence” for “Pre-Emergence”

[8] = system: Avena fatua (AVEFA); assay: as above; settings: rate 250 g/ha, evaluated after 13 days, 100=total damage to plant, 0=no damage to plant; for pest or weed control at 250 g/ha: Avena fatua, 312 h
Protocol: as §1, with “Post-Emergence” for “Pre-Emergence”

## Cc1cc(Oc2ccc(F)cc2F)cc(C)c1C1=C(O)[C@H]2[C@@H](C1=O)[C@@H]1CC[C@H]2O1 [Compound A-6]
[1]
  pest or weed control at 250 g/ha: 70%
[2]
  pest or weed control at 250 g/ha: 70%
[3]
  pest or weed control at 250 g/ha: 80%
[4]
  pest or weed control at 250 g/ha: 30%
[5]
  pest or weed control at 250 g/ha: 90%
[6]
  pest or weed control at 250 g/ha: 90%
[7]
  pest or weed control at 250 g/ha: 70%
[8]
  pest or weed control at 250 g/ha: 70%

## Cc1cc(Oc2ncc(Cl)cc2F)cc(C)c1C1=C(O)[C@H]2[C@H]3CC[C@H](C3)[C@H]2C1=O [Compound A-18]
[1]
  pest or weed control at 250 g/ha: 10%
[2]
  pest or weed control at 250 g/ha: 40%
[3]
  pest or weed control at 250 g/ha: 0%
[4]
  pest or weed control at 250 g/ha: 0%
[5]
  pest or weed control at 250 g/ha: 30%
[6]
  pest or weed control at 250 g/ha: 70%
[7]
  pest or weed control at 250 g/ha: 10%
[8]
  pest or weed control at 250 g/ha: 30%

## Cc1cc(Oc2ncc(Cl)cc2F)cc(C)c1C1=C(O)[C@H]2[C@@H](C1=O)[C@@H]1CC[C@H]2O1 [Compound A-25]
[1]
  damage to plant ALOMY: 40
[2]
  damage to plant ECHCG: 70
[3]
  damage to plant LOLPE: 80
[4]
  damage to plant AVEFA: 30
[5]
  damage to plant ALOMY: 90
[6]
  damage to plant ECHCG: 70
[7]
  damage to plant LOLPE: 80
[8]
  damage to plant AVEFA: 70

## Cc1cc(Oc2ccc(Cl)cc2)cc(C)c1C1=C(OC(=O)C(C)(C)C)[C@H]2[C@@H](C1=O)[C@@H]1CC[C@H]2O1 [Compound P-3]
[1]
  pest or weed control at 250 g/ha: 100%
[2]
  pest or weed control at 250 g/ha: 100%
[3]
  pest or weed control at 250 g/ha: 90%
[4]
  pest or weed control at 250 g/ha: 90%
[5]
  pest or weed control at 250 g/ha: 90%
[6]
  pest or weed control at 250 g/ha: 100%
[7]
  pest or weed control at 250 g/ha: 100%
[8]
  pest or weed control at 250 g/ha: 100%

## Cc1cc(Oc2ccc3cc(Cl)ccc3n2)cc(C)c1C1=C(O)CC(CC2CCOCC2)C1=O (stereo not drawn) [Compound A-37, 2-[4-(6-chloroquinolin-2-yloxy)-2,6-dimethylphenyl]-4-(tetrahydropyran-4-ylmethyl)cyclopentane-1,3-dione]
[1]
  pest or weed control at 250 g/ha: 10%
[2]
  pest or weed control at 250 g/ha: 90%
[3]
  pest or weed control at 250 g/ha: 0%
[4]
  pest or weed control at 250 g/ha: 10%
[5]
  pest or weed control at 250 g/ha: 50%
[6]
  pest or weed control at 250 g/ha: 80%
[7]
  pest or weed control at 250 g/ha: 40%
[8]
  pest or weed control at 250 g/ha: 60%

## Cc1cc(Oc2ccc(Br)cc2F)cc(C)c1C1=C(O)[C@H]2[C@@H](C1=O)[C@@H]1CC[C@H]2O1 [Compound A-3, meso-(1R,2S,6R,7S)-4-(4-[4-bromo-2-fluorophenoxy]-2,6-dimethylphenyl)-10-oxatricyclo[5.2.1.0^2,6]decane-3,5-dione]
[1]
  pest or weed control at 250 g/ha: 80%
[2]
  pest or weed control at 250 g/ha: 90%
[3]
  pest or weed control at 250 g/ha: 80%
[4]
  pest or weed control at 250 g/ha: 30%
[5]
  pest or weed control at 250 g/ha: 100%
[6]
  pest or weed control at 250 g/ha: 100%
[7]
  pest or weed control at 250 g/ha: 90%
[8]
  pest or weed control at 250 g/ha: 90%

## Cc1cc(Oc2cnc3cc(Cl)ccc3n2)cc(C)c1C1=C(O)[C@H]2[C@@H](C1=O)[C@@H]1CC[C@H]2O1 [Compound A-23]
[1]
  damage to plant ALOMY: 30
[2]
  damage to plant ECHCG: 90
[3]
  damage to plant LOLPE: 90
[4]
  damage to plant AVEFA: 20
[5]
  damage to plant ALOMY: 60
[6]
  damage to plant ECHCG: 70
[7]
  damage to plant LOLPE: 50
[8]
  damage to plant AVEFA: 80

## Cc1cc(Br)ccc1Oc1cc(C)c(C2=C(O)[C@H]3[C@@H](C2=O)[C@@H]2CC[C@H]3O2)c(C)c1 [Compound A-13]
[1]
  pest or weed control at 250 g/ha: 60%
[2]
  pest or weed control at 250 g/ha: 70%
[3]
  pest or weed control at 250 g/ha: 60%
[4]
  pest or weed control at 250 g/ha: 0%
[5]
  pest or weed control at 250 g/ha: 80%
[6]
  pest or weed control at 250 g/ha: 50%
[7]
  pest or weed control at 250 g/ha: 60%
[8]
  pest or weed control at 250 g/ha: 30%

## Cc1cc(Oc2ccc(Br)cc2Cl)cc(C)c1C1=C(O)[C@H]2[C@@H](C1=O)[C@@H]1CC[C@H]2O1 [Compound A-12]
[1]
  pest or weed control at 250 g/ha: 40%
[2]
  pest or weed control at 250 g/ha: 60%
[3]
  pest or weed control at 250 g/ha: 70%
[4]
  pest or weed control at 250 g/ha: 10%
[5]
  pest or weed control at 250 g/ha: 80%
[6]
  pest or weed control at 250 g/ha: 100%
[7]
  pest or weed control at 250 g/ha: 70%
[8]
  pest or weed control at 250 g/ha: 70%

## Cc1cc(Oc2ccc(F)cc2)cc(C)c1C1=C(O)[C@H]2[C@@H](C1=O)[C@@H]1CC[C@H]2O1 [Compound A-15]
[1]
  pest or weed control at 250 g/ha: 60%
[2]
  pest or weed control at 250 g/ha: 70%
[3]
  pest or weed control at 250 g/ha: 90%
[4]
  pest or weed control at 250 g/ha: 70%
[5]
  pest or weed control at 250 g/ha: 90%
[6]
  pest or weed control at 250 g/ha: 100%
[7]
  pest or weed control at 250 g/ha: 90%
[8]
  pest or weed control at 250 g/ha: 90%

## Cc1cc(Oc2ncc(Cl)cc2F)cc(C)c1C1=C(O)[C@H]2[C@@H](C1=O)[C@@H]1CC[C@H]2O1 [Compound A-24]
[1]
  damage to plant ALOMY: 100
[2]
  pest or weed control at 250 g/ha: 70%
[3]
  pest or weed control at 250 g/ha: 80%
[4]
  damage to plant AVEFA: 60
[5]
  pest or weed control at 250 g/ha: 80%
[6]
  pest or weed control at 250 g/ha: 90%
[7]
  pest or weed control at 250 g/ha: 90%
[8]
  pest or weed control at 250 g/ha: 80%

## Cc1cc(Oc2ncc(Cl)cc2Cl)cc(C)c1C1=C(O)[C@H]2[C@@H](C1=O)[C@@H]1CC[C@H]2O1 [Compound A-26]
[1]
  pest or weed control at 250 g/ha: 90%
[2]
  pest or weed control at 250 g/ha: 100%
[3]
  pest or weed control at 250 g/ha: 100%
[4]
  pest or weed control at 250 g/ha: 60%
[5]
  pest or weed control at 250 g/ha: 100%
[6]
  pest or weed control at 250 g/ha: 90%
[7]
  pest or weed control at 250 g/ha: 100%
[8]
  pest or weed control at 250 g/ha: 70%

## Cc1cc(Oc2ccc(Cl)cc2)cc(C)c1C1=C(O)[C@H]2[C@@H](C1=O)[C@@H]1CC[C@H]2O1 [Compound A-4]
[1]
  pest or weed control at 250 g/ha: 100%
[2]
  pest or weed control at 250 g/ha: 90%
[3]
  pest or weed control at 250 g/ha: 80%
[4]
  pest or weed control at 250 g/ha: 70%
[5]
  pest or weed control at 250 g/ha: 100%
[6]
  pest or weed control at 250 g/ha: 100%
[7]
  pest or weed control at 250 g/ha: 100%
[8]
  pest or weed control at 250 g/ha: 90%

## Cc1cc(Oc2cc(F)ccc2F)cc(C)c1C1=C(O)[C@H]2[C@@H](C1=O)[C@@H]1CC[C@H]2O1 [Compound A-9]
[1]
  pest or weed control at 250 g/ha: 20%
[2]
  pest or weed control at 250 g/ha: 50%
[3]
  pest or weed control at 250 g/ha: 60%
[4]
  pest or weed control at 250 g/ha: 0%
[5]
  pest or weed control at 250 g/ha: 60%
[6]
  pest or weed control at 250 g/ha: 90%
[7]
  pest or weed control at 250 g/ha: 60%
[8]
  pest or weed control at 250 g/ha: 40%

## Cc1cc(Oc2cnc3cc(Cl)ccc3n2)cc(C)c1C1=C(O)[C@H]2[C@@H](C1=O)[C@@H]1CC[C@H]2O1 [Compound A-22]
[1]
  pest or weed control at 250 g/ha: 50%
[2]
  pest or weed control at 250 g/ha: 90%
[3]
  pest or weed control at 250 g/ha: 80%
[4]
  damage to plant AVEFA: 50
[5]
  damage to plant ALOMY: 100
[6]
  pest or weed control at 250 g/ha: 90%
[7]
  damage to plant LOLPE: 100
[8]
  pest or weed control at 250 g/ha: 100%
